According to EPA's ToxRefDB 2:

Columns and labels:
rat [1] = conditions: Fertility (Segment I), Oral, Gavage/Intubation, dose end: 1 generation
rabbit [2] = conditions: Sub-acute repeat dose toxicity, Oral, Gavage/Intubation, dose end: 13 day
rat [3] = conditions: Prenatal developmental toxicity study; sprague dawley; Oral; Gavage/Intubation; dose end: 18 GD; group: maternal; systemic / in life observation / body weight / body weight gain + systemic / in life observation / food consumption / food consumption
rabbit [4] = conditions: Prenatal developmental toxicity study; Oral; Gavage/Intubation; dose end: 19 GD; group: maternal; reproductive / reproductive performance / aborted / aborted + systemic / in life observation / food consumption / food consumption + …
rat [5] = conditions: Fertility (Segment I), Oral, Gavage/Intubation, dose end: 1 generation, group: parental
rat [6] = conditions: Multigenerational reproductive toxicity study; other; Oral; Feed; dose end: 3 generation; group: parental; systemic / in life observation / body weight / body weight
rat [7] = conditions: Prenatal developmental toxicity study, sprague dawley, Oral, Gavage/Intubation, dose end: 15 GD
mouse = conditions: Carcinogenicity; cd1; Oral; Feed; dose end: 18 month; group: systemic; systemic / organ weight / liver / absolute + systemic / organ weight / liver / relative to body weight + systemic / pathology microscopic / …
[8] = group: maternal, reproductive / reproductive performance / estrous cycle / abnormal
[9] = group: parental, systemic / in life observation / food consumption / food consumption
[10] = group: maternal, reproductive / reproductive performance / aborted / aborted + reproductive / reproductive performance / resorptions / resorptions
[11] = group: systemic, systemic / in life observation / body weight / body weight gain + systemic / in life observation / food consumption / food consumption
[12] = systemic / in life observation / body weight / body weight + systemic / in life observation / food consumption / food consumption + systemic…
[13] = group: developmental, developmental / developmental malformation / bone / delayed ossification
[14] = group: maternal, systemic / in life observation / body weight / body weight gain

## CNCc1ccc(NC(=O)c2c[nH]c3c2C(=O)CCC3)cc1
Rat [1]; [8]
  LEL: 250 mg/kg/day
  LOAEL: > 1000 mg/kg/day
  NEL: 25 mg/kg/day
  NOAEL: ≥ 1000 mg/kg/day
Rat [1]; [9]
  LEL: 1000 mg/kg/day
  LOAEL: > 1000 mg/kg/day
  NEL: 250 mg/kg/day
  NOAEL: ≥ 1000 mg/kg/day
Rabbit [2]; [10]
  LEL: 300 mg/kg/day
  LOAEL: > 300 mg/kg/day
  NEL: 150 mg/kg/day
  NOAEL: ≥ 300 mg/kg/day
Rabbit [2]; [11]
  LEL: 300 mg/kg/day
  LOAEL: > 300 mg/kg/day
  NEL: 150 mg/kg/day
  NOAEL: ≥ 300 mg/kg/day
Rat [3]
  LEL: 250 mg/kg/day
  LOAEL: > 1000 mg/kg/day
  NEL: 25 mg/kg/day
  NOAEL: ≥ 1000 mg/kg/day
Rabbit [4]
  LEL: 300 mg/kg/day
  LOAEL: > 300 mg/kg/day
  NEL: 100 mg/kg/day
  NOAEL: ≥ 300 mg/kg/day
Rat [5]; [12]
  LOAEL: > 1000 mg/kg/day
  NEL: 25 mg/kg/day
  NOAEL: ≥ 1000 mg/kg/day
Rat [5]; systemic / in life observation / body weight / body weight + systemic / pathology gross / intestine large / dilatation
  LEL: 250 mg/kg/day

## O=C(O)Cc1c(Cl)ccc(Cl)c1Cl [Chlorfenac]
Rat [6]
  LEL: 125 mg/kg/day
  LOAEL: > 125 mg/kg/day
  NEL: 25 mg/kg/day
  NOAEL: ≥ 125 mg/kg/day
Rat [7]; [13]
  LEL: 300 mg/kg/day
  LOAEL: > 300 mg/kg/day
  NEL: 60 mg/kg/day
  NOAEL: ≥ 300 mg/kg/day
Rat [7]; [14]
  LEL: 300 mg/kg/day
  LOAEL: > 300 mg/kg/day
  NEL: 60 mg/kg/day
  NOAEL: ≥ 300 mg/kg/day
mouse
  LEL: 600 mg/kg/day
  LOAEL: > 600 mg/kg/day
  NEL: 300 mg/kg/day
  NOAEL: ≥ 600 mg/kg/day
